Test results as given in patent US4174402A, “Method for the prophylaxis of SRS-A-induced symptoms” (priority 1978, dated 1979).

Assays:
SRS-A [1] = test: Test Procedure 2: inhibition of SRS-A-induced bronchoconstriction in anesthetized guinea pigs (Konzett-Rossler); format: in vivo, guinea pig; conditions: for % Inhibition (duration of anti-SRS-A effect) / Ratio of Peak Response to SRS-A in Paired Med./Co. Guinea Pigs ± S.E.: 10 mg/kg p.o.
Description: SRS-A was harvested as described in Test Procedure 1 described hereinabove. A slightly modified Konzett-Rossler preparation [Arch. […] Guinea pigs weighing 350 to 450 g were anesthetized ip with 1.5 g/kg urethane. The jugular vein and trachea were cannulated and the guinea pigs were artificially respired at a rate of 40 strokes/minute. […] A side arm of the inflationary air cannula was connected to a pressure transducer and resistance to pulmonary inflation continuously recorded. […] Studies with SRS-A commenced after each guinea pig had attained maximum bronchoconstrictor response to histamine. […] The effects of the test compounds were studied by measuring SRS-A-induced bronchoconstriction side-by-side in two guinea pigs, one medicated and one control. Subsequent medicated/control pairs were alternated on two respiratory pumps. In this manner, the gradual decomposition of SRS-A and differences between the two pump/recorder systems, if any, were controlled. The dose (volume) of each sample of SRS-A was adjusted in each pair to keep the peaks of increases in bronchial resistance in control guinea pigs within 13 to 40 mmHg. Bronchoconstriction following injection of SRS-A was measured two ways; as the peak increase in resistance to inflation and, in view of the occasional irregular bronchoconstriction response curves following injection of SRS-A, as the sum of increases in bronchoconstriction over 10 minutes (pressure/time units). Pressure/time units were calculated by measuring the area under the curve of inflationary resistance where ordinates were set at 10 mm of pen excursion/10 mm pressure Hg and the abscissas were set at 15 mm of paper travel/minute. […] SRS-A-induced bronchoconstriction (increase in resistance) was calculated as the area under the curve and over the normal base line of resistance to inflation. […] The effects of the test compounds upon SRS-A-induced bronchoconstriction were expressed as ratios of the peaks and as ratios of the pressure/time units between the paired medicated and control guinea pigs. The consistency of paired responses to SRS-A in nonmedicated guinea pigs was determined in the same manner, by alternating the ratios of the results of guinea pigs on pumps one and two. […] SRS-A was injected 5 minutes after these latter injections. Compound b was prepared as a solution in 2% N-methylglucamine and used within 3 hours. […] Control guinea pigs received injections of the respective solvent vehicles. In order to compare the activities of compound b following iv and po routes of administration, compound b was also administered orally. […] Control guinea pigs received 2% N-methylglucamine. Fifteen minutes later, the guinea pigs were anesthetized, cannulated, and prepared for injections of SRS-A as described. The procedure was timed so that SRS-A was injected 1 hour after the oral administration of compound b. In a separate experiment, using the same methodology, the duration anti-SRS-A activity of compound b was determined after oral administration. Compound b was finely ground in a tissue homogenizer and prepared as a suspension in 0.5% gum tragacanth. A dose of 10 mg/kg was administered and anti-SRS-A effect studied at 1, 4 and 7 hr postmedication. The ratios of peak increases in intratracheal pressure between paired medicated and control guinea pigs was used to calculate percent inhibition.

bradykinin = test: animal or person; conditions: Cavia porcellus, iv, read-out: lowest dose that resulted in significant inhibition
Description: Antagonism of bradykinin-induced bronchoconstriction in guinea pigs was determined by measuring increases in resistance to artificial pulmonary inflation (Konzett-Rossler preparation). […] Due to large variations in bronchoconstricting responses among individual guinea pigs, each guinea pig serves as its own control and was challenged with bradykinin twice. The second response to bradykinin was expressed as percent of the first response to bradykinin. […] All guinea pigs having a first bradykinin response of less than 12 mm Hg were rejected as poor responders. […] In order to augment the bronchoconstrictor response, each guinea pig received 100 mcg propranolol/kg, iv, 5 minutes before the first injection of bradykinin (30 mcg/kg, iv). […] Five minutes after the injection of a test compound the guinea pigs received the second injection of bradykinin and the peak of the response determined. The effects of both test compounds were expressed as % inhibition of bradykinin-induced increase in bronchial resistance to forced inflation, as compared to the levels of bronchial resistance following iv administration of their respective solvent controls.

SRS-A [2] = test: Test Procedure 1: antagonism of SRS-A-induced bronchoconstriction in unanesthetized guinea pigs; format: in vivo, guinea pig
Description: The test compounds were administered orally to four guinea pigs/group 1 hour before the SRS-A challenge. The test compounds were prepared as suspensions in 1% gum tragacanth. Bronchoconstriction was graded 1+ to 3+ according to severity (1+ denoted restlessness and slight thoracic dyspnea, 2+ denoted moderate thoracic dyspnea and 3+ denoted convulsive dyspnea, regardless of whether the guinea pig died of asphyxiation or recovered).

[3] = suspension, 1 hr before test, P 0.01
[4] = suspension, 4 hr before test, P 0.01
[5] = p.o. 3.3 mg/kg, solution, 1 hour
[6] = p.o. 10 mg/kg, solution, 1 hour

Structure (SMILES): COc1ccc2c(c1)c1c(n2C(=O)c2ccccc2)CCC(C(=O)O)C1 (centres unmarked) [Compound b, 9-benzoyl-6-methoxy-1,2,3,4-tetrahydrocarbazole-3-carboxylic acid]
- % Inhibition (duration of anti-SRS-A effect) (SRS-A [1]; [3]): 81%
- Ratio of Peak Response to SRS-A in Paired Med./Co. Guinea Pigs ± S.E. (SRS-A [1]; [3]): 0.19 ± 0.05
- % Inhibition (duration of anti-SRS-A effect) (SRS-A [1]; [4]): 68%
- Ratio of Peak Response to SRS-A in Paired Med./Co. Guinea Pigs ± S.E. (SRS-A [1]; [4]): 0.32 ± 0.08
- % Inhibition (duration of anti-SRS-A effect) (SRS-A [1]; suspension, 7 hr before test): 0%
- Ratio of Peak Response to SRS-A in Paired Med./Co. Guinea Pigs ± S.E. (SRS-A [1]; suspension, 7 hr before test): 1.00 ± 0.15
- minimal effective dose (SRS-A [1]; Cavia porcellus, intravenous, read-out: minimal active dose): 1 mg/kg
- effect against SRS-A-induced bronchoconstriction (activity profile) (SRS-A [1]; guinea pigs): effectiveness
- % Inhibition (sum of increase in resistance over 10 min) (SRS-A [1]; i.v. 0.3 mg/kg): 0%
- Sum of Increase in Resist. to Infl. over 10 min, Avg Ratio Med/Co. Pairs ± S.E. (SRS-A [1]; i.v. 0.3 mg/kg): 1.18 ± .33
- % Inhibition (peak increase in resistance) (SRS-A [1]; i.v. 0.33 mg/kg): 0%
- Peak Increase in Resistance to Inflation, Avg Ratio of Med/Co. Pairs ± S.E. (SRS-A [1]; i.v. 0.33 mg/kg): 1.10 ± .19
- % Inhibition (peak increase in resistance) (SRS-A [1]; i.v. 1.0 mg/kg): 54%
- % Inhibition (sum of increase in resistance over 10 min) (SRS-A [1]; i.v. 1.0 mg/kg): 45%
- Peak Increase in Resistance to Inflation, Avg Ratio of Med/Co. Pairs ± S.E. (SRS-A [1]; i.v. 1.0 mg/kg): 0.44 ± .07
- Sum of Increase in Resist. to Infl. over 10 min, Avg Ratio Med/Co. Pairs ± S.E. (SRS-A [1]; i.v. 1.0 mg/kg): 0.55 ± .09
- % Inhibition (peak increase in resistance) (SRS-A [1]; i.v. 3.3 mg/kg): 89%
- % Inhibition (sum of increase in resistance over 10 min) (SRS-A [1]; i.v. 3.3 mg/kg): 83%
- Peak Increase in Resistance to Inflation, Avg Ratio of Med/Co. Pairs ± S.E. (SRS-A [1]; i.v. 3.3 mg/kg): 0.11 ± .04
- Sum of Increase in Resist. to Infl. over 10 min, Avg Ratio Med/Co. Pairs ± S.E. (SRS-A [1]; i.v. 3.3 mg/kg): 0.17 ± .05
- % Inhibition (peak increase in resistance) (SRS-A [1]; i.v. 10 mg/kg): 95%
- % Inhibition (sum of increase in resistance over 10 min) (SRS-A [1]; i.v. 10 mg/kg): 86%
- Peak Increase in Resistance to Inflation, Avg Ratio of Med/Co. Pairs ± S.E. (SRS-A [1]; i.v. 10 mg/kg): 0.05 ± .03
- Sum of Increase in Resist. to Infl. over 10 min, Avg Ratio Med/Co. Pairs ± S.E. (SRS-A [1]; i.v. 10 mg/kg): 0.14 ± .04
- inhibition of SRS-A-induced increases in resistance to inflation (SRS-A [1]; intravenous): inhibited SRS-A-induced increases in resistance to inflation in a dose-related manner
- potency relative to phenylbutazone, times more potent (95% confidence limits) (SRS-A [1]; intravenous, calculated by peaks of increases in resistance): 3.8 (95% confidence limits of 1.8 to 7.8) times
- absorption from the GI tract (SRS-A [1]; oral solution in 2% N-methylglucamine, suggested by activity ratio): readily absorbed from the GI tract
- inhibition of SRS-A-induced bronchoconstriction (SRS-A [1]; oral solutions): dose-related inhibition
- % Inhibition (peak increase in resistance) (SRS-A [1]; [5]): 36%
- % Inhibition (sum of increase in resistance over 10 min) (SRS-A [1]; [5]): 47%
- Peak Increase in Resistance to Inflation, Avg Ratio of Med/Co. Pairs ± S.E. (SRS-A [1]; [5]): 0.64 ± .13
- Sum of Increase in Resist. to Infl. over 10 min, Avg Ratio Med/Co. Pairs ± S.E. (SRS-A [1]; [5]): 0.53 ± .13
- % Inhibition (peak increase in resistance) (SRS-A [1]; [6]): 87%
- % Inhibition (sum of increase in resistance over 10 min) (SRS-A [1]; [6]): 92%
- Sum of Increase in Resist. to Infl. over 10 min, Avg Ratio Med/Co. Pairs ± S.E. (SRS-A [1]; [6]): 0.08 ± .03
- duration of inhibition of SRS-A-induced bronchoconstriction (SRS-A [1]; single oral dose 10 mg/kg, suspension): 4 h
- iv/po activity ratio (po AED50/iv AED50) (SRS-A [1]; solution in 2% N-methylglucamine): 2.6
- minimal effective dose (bradykinin): 1 mg/kg
- Incidence of Severe Bronchospasms, % (SRS-A [2]; 0.4 mg/kg p.o.): 75%
- Incidence of Severe Bronchospasms, No. Bronchosp./No. Tested (SRS-A [2]; 0.4 mg/kg p.o.): 15/20
- Incidence of Severe Bronchospasms, % (SRS-A [2]; 1.6 mg/kg p.o.): 42%
- Incidence of Severe Bronchospasms, No. Bronchosp./No. Tested (SRS-A [2]; 1.6 mg/kg p.o.): 8/19
- inhibition of severe SRS-A induced bronchospasm (SRS-A [2]; 6.2 mg/kg oral): completely inhibited
- Incidence of Severe Bronchospasms, % (SRS-A [2]; 6.2 mg/kg p.o.): 0%
- Incidence of Severe Bronchospasms, No. Bronchosp./No. Tested (SRS-A [2]; 6.2 mg/kg p.o.): 0/19
- Incidence of Severe Bronchospasms, % (SRS-A [2]; 25 mg/kg p.o.): 4%
- Incidence of Severe Bronchospasms, No. Bronchosp./No. Tested (SRS-A [2]; 25 mg/kg p.o.): 1/23
- Incidence of Severe Bronchospasms, % (SRS-A [2]; 100 mg/kg p.o.): 0%
- Incidence of Severe Bronchospasms, No. Bronchosp./No. Tested (SRS-A [2]; 100 mg/kg p.o.): 0/20
- Incidence of Severe Bronchospasms, % (SRS-A [2]; 400 mg/kg p.o.): 0%
- Incidence of Severe Bronchospasms, No. Bronchosp./No. Tested (SRS-A [2]; 400 mg/kg p.o.): 0/10
- ED50 (SRS-A [2]; Cavia porcellus, po, 1 hour before SRS-A, read-out: AED50): 2.3 mg/kg
- Potency (Phenylbutazone = 1) (95% confidence limits) (SRS-A [2]; p.o., 1 hour before SRS-A): 4.0 (2.1-8.2)
